Where “and” joins values, the source holds several entries; their conditions need not be identical. Equal entries are not always repeated. Entries after “also recorded” stand apart in the source; their conditions may differ.
Columns and labels:
[1] = system: volunteers and AD patients; experiment: Phase 1b MAD safety and tolerability (adverse events, ECG, safety labs); assay type: in vivo, human
Text: Methods: All study procedures were approved by the IRB, and informed consent was obtained. Three cohorts of volunteers 45-80 years of age with well-controlled comorbidities (NOAD) and one cohort of AD patients diagnosed with cognitive impairment consistent with prodromal AD per International Working Group criteria or mild AD per National Institute on Aging—Alzheimer's Association criteria (n=6 active, 2 placebo per cohort) were enrolled. Participants were admitted to the study site for the duration of the dosing and returned 7-12 days after the last dose for a safety visit. Participants received NTRX-07 (10, 30, or 90 mg) or a placebo in a double-blinded randomization orally once daily for seven days. Subjects were assessed for changes in vital signs, including maneuvers to induce lightheadedness, electrocardiograms, 24-hour electroencephalograms (EEG), and safety laboratory studies. The second cohort returned and received a single repeat dose after a standard high-fat meal. The AD cohort also underwent cognitive testing and had blood samples for biomarkers drawn. Subjects had PK sampling done after the first and final dose of the study drug. An independent safety review committee conducted a blinded safety review of adverse events and plasma levels between each cohort.
(§1) Assessments: Subjects were assessed for changes in vital signs, orthostatic blood pressure, Romberg test, nystagmus, timed get up and go, electrocardiograms, electroencephalograms (EEG), and laboratory studies. Subjective questionnaires of drug effects (ARCI-M) were administered. Cohort B returned and received a single repeat dose after a standard high-fat meal. The AD cohort also underwent cognitive testing (MMSE, ADAS-COG, MOCA) and had blood samples for biomarkers drawn.
(§2) An informational letter was filed with the FDA to inform them of this study. The study was designed as follows: • 3 healthy cohorts (cohorts A-C) followed by AD cohort (cohort D) treated at MTD • 6 treated, 2 placebos in each cohort • Doses: 10, 30, 90 mg/treatment—latter doses can be adjusted based on PK assessment • In unit, 7 days of treatment • Monitor vertigo with various tests: (1) timed get-up and go, (2) Nystagmus test, (3) Romberg test, and (4) changes in orthostatic blood pressure (Day 1, 3 and 8) • Use 24 hr EEG monitoring for CNS safety assessment • Assess plasma biomarkers of inflammation and AD pre- and post-treatment in AD cohort • Assess changes on cognition post-treatment using MMSE and ADAS-cog • Fed/fasted study to determine food effects on PK as a subset of the Phase 1b

[2] = system: volunteers and AD patients; experiment: Orthostatic blood pressure and vertigo tests (timed get-up and go, Nystagmus test, Romberg test); assay type: in vivo, human; conditions: Phase 1b
Procedure: as §1, §2

[3] = Phase 1b, individual subjects on NTRX-07, Cohorts C and D (90 mg QD)

CC1(Cc2ccccc2)COc2cc(C(=O)N3CCCCC3)ccc21 (stereo not drawn) [NTRX-07, 3-benzyl-3-methyl-2,3-dihydrobenzofuran-6-carboxylic acid-piperidine amide]
Changes in ECG or safety labs ([1]; Phase 1b): No clinically meaningful changes
Dose-limiting toxicities / serious adverse events ([1]; Phase 1b, 10, 30, 90 mg oral QD for 7 days): no dose-limiting or serious adverse events; also recorded: safely administered; also recorded: No dose limiting toxicities at any of the tested doses
Adverse events observed during trial: Description of Event [1, 3]: Subfebrility; also recorded: Heartburn; also recorded: Dry mouth; also recorded: Xerostomia; also recorded: Hypertension; also recorded: Nausea; also recorded: Hypertension,; also recorded: tachycardia; also recorded: Dizziness; also recorded: Presyncope; also recorded: Weakness
Adverse events observed during trial: Related to Study Drug? [1, 3]: Possible (7×) and Probable and None (2×)
Adverse events observed during trial: Severity [1, 3]: Mild (8×) and Moderate (2×)
Orthostatic events observed during trial: Severity ([2]; individual subjects on NTRX-07 (Cohort B 30 mg, C and D 90 mg QD)): Mild
Primary side effect observed ([2]; usually with early doses): mild transient orthostatic changes in blood pressure
Orthostasis: Incidences ([2]; treated subjects): 16.7%
Orthostasis: Subjects who had an incident ([2]; treated subjects): 16.7%

Source: patent US20250082624A1, “METHODS OF TREATING COGNITIVE IMPAIRMENT” (NeuroTherapia, Inc., priority 2023, published 2025)
